Test results from patent publication EP0621342A1, “Reagent and kit for determining isoprenylating activity and inhibition thereof” (NEDERLANDSE ORGANISATIE VOOR …, priority 1993, dated 1994).

Molecular target: protein:farnesyltransferase (Oryctolagus cuniculus, UniProt G1SFC8+G1T7D9)
Experiment: Inhibition of protein:farnesyl transferase activity in rabbit reticulocyte lysate (Sepharose-bound peptide, 3H-FPP)
Assay type: biochemical
Conditions: 80 pmol of pepAsep and pepBsep/5 µl beads, 0.7 µM ³H-FPP, 30 min at 37°C, read-out: IC₅₀-value
Protocol: Commercially available rabbit reticulocyte lysate contains enzymes necessary for protein-isoprenylation, such as protein:farnesyl transferase activity (Vorburger, K., Kitten, G.T. and Nigg, E.G., EMBO J. 8 (1989) 4007-4013) and protein:geranylgeranyl transferase (Maltese, W.A. and Robishaw, J.D., J. Biol. Chem. 265 (1990) 18071-18074). Using pepAsep (example I) as substrate and pepBsep (example I) as control the assay of protein:farnesyl transferase activity was performed as follows: In 25 µl of a mixture containing 5 µl of pepAsep or pepBsep (both containing an equal quantity of peptide), 13 µl rabbit reticulocyte lysate (Promega), 0.5 mM MgCl₂, 1 mM DTT, 50 mM Tris-HCl (pH 7.4) and [³H]-farnesyl pyrophosphate (³H-FPP; concentration as indicated in the figures; specific radioactivity 15 Ci/mmol; ARC, USA) the incubation was performed at 37°C for 30 min with continuous shaking. […] The radioactivity bound to the Sepharose was measured in a Packard Tricarb liquid scintillation counter. […]
80 pmol of pepAsep and pepBsep/5 µl Sepharose were incubated for 30 minutes in the presence of 0.7 µM of [³H]-FPP and the indicated concentrations of the farnesyl pyrophosphate analogues FPPA1 and FPPA2 as mentioned in Example IV. The farnesylation activity was calculated as ³H-dpm bound to pepAsep minus the pepBsep-bound-dpm and expressed as percentage of control (without inhibitor). […]

Structure (SMILES) | IC50
CC(C)=CCC/C(C)=C/CC/C(C)=C/COCP(=O)(O)CP(=O)(O)O [FPPA1, (E,E) -[Hydroxy-(3,7,11-trimethyl-2,6,10-dodecatrienyloxymethylphosphinyl)methyl]phosphonic acid] | 5260 ± 1100 nM
CC(C)=CCCC(C)=CCCC(C)=CCP(=O)(O)OP(=O)(O)O [FPPA2, farnesyl phosphonophosphate] | 290 ± 20 nM
